Test system: Plasmodium falciparum
Experiment: GSK_TCMDC: Inhibition of Plasmodium falciparum 3D7 in whole erythrocytes, using parasite LDH activity as an index of growth.
Assay type: functional, organism-based
Conditions: Plasmodium falciparum, 3D7

| Compound | XC50 |
| --- | --- |
| O=C(NCCCCCN1CCC(c2c[nH]c3ccccc23)CC1)c1ccc(Cl)c(Cl)c1 | 1360 nM |
| CCC(=O)Oc1ccc(NC(=O)c2cccc(OC)c2)cc1 | 771 nM |
| COc1ccc2nccc([C@@H](O)CN3CCC(NCCOc4ccc(F)cc4Cl)CC3)c2c1 | 276 nM |
| CC(=O)N(C)c1cccc(C(=O)Nc2cccc(-c3ccc(-c4nc5cc(C(F)(F)F)ccc5[nH]4)cc3)c2)c1 | 1000 nM |
| CN(CCCCCN1CCC(NC(=O)Nc2ccc(C(F)(F)F)cc2)C1)C(=O)/C=C/c1ccc(Cl)c(Cl)c1 (stereo unspecified) | 771 nM |
| CCC(=O)c1cc(C(=O)NCCc2cccc(OC)c2)ccc1OC | 902 nM |
| CC(C)Cc1ccc(N2CCN(CCCCNC(=O)c3ccc(NC(=O)c4ccc(Cl)c(Cl)c4)cc3)CC2)cc1 | 1200 nM |
| O=C(NCCNc1ccnc(NCc2ccc(F)cc2)n1)c1cc2ccccc2s1 | 695 nM |
| CCn1c(-c2nonc2N)nc2c(-c3cccc(NC(=O)Nc4ccc(C#N)cc4)c3)ncc(OCCCN)c21 | 1510 nM |
| Cc1nn(-c2ccccc2)nc1C(=O)NC1CCN(CCNC(=O)c2ccc(Cl)c(Cl)c2)CC1 | 868 nM |
| OC(CNc1cccc(Cl)c1)Cn1c2ccc(Cl)cc2c2cc(Cl)ccc21 (stereo unspecified) | 958 nM |
| CCC[C@@H]([C@@H](CC1CCCCC1)C(=O)N[C@H](C(=O)Nc1nccs1)[C@@H](C)OCc1ccccc1)N(O)C=O | 78.2 nM |
| O=C(Nc1ccc(OC2CCN(Cc3ccccc3)CC2)c(Cl)c1)c1ccc(F)cc1 | 796 nM |
| Fc1cccc(COc2ccc(Nc3ncnc4sc(C#CC5CCCCN5)cc34)cc2Cl)c1 (stereo unspecified) | 540 nM |
| Cc1cccc2nc(-c3cccc(-c4cccc(NC(=O)C(C)CN(C)C)c4)c3)[nH]c12 (stereo unspecified) | 413 nM |
| CNCc1ccc(CN(C)c2nc(N)c3cc(OC)c(OC)cc3n2)cc1 | 1030 nM |
| Cn1c(-c2ccccc2)cc2c3c(N)nc(N)nc3ccc21 | 888 nM |
| Cc1cc(NC(=O)NCCN2CCC(NC(=O)c3ccc(C(F)(F)F)cc3)CC2)c2ccccc2n1 | 413 nM |
| Nc1ncc(-c2ccc(Br)cc2)c(N)n1 | 920 nM |
| COc1ccc(NC(=O)Nc2nc(-c3ccc(Cl)c(C)c3)cs2)cc1N1CCN(C)CC1 | 266 nM |
| N#Cc1ccc(N(CCCO)Cc2ccccc2C(F)(F)F)cc1C(F)(F)F | 978 nM |
| Cc1nn(-c2ccccc2)c2c1C(c1ccc(C(C)C)cc1)N1C(=N2)N(Cc2ccccc2)c2ccccc21 (stereo unspecified) | 776 nM |
| CN(C)CCCNc1nccc(N(C)c2ccc(NC(=O)Nc3cc(C(F)(F)F)ccc3F)cc2)n1 | 980 nM |
| CC1(C)Cc2c(oc3ncn(CCn4cnc5oc6c(c5c4=N)CC(C)(C)SC6)c(=N)c23)CS1 | 719 nM |

| Compound | XC50 |
| --- | --- |
| Cc1cccc(CNc2ncc(C)c(NCCC(=O)Nc3ccccc3)n2)c1 | 1150 nM |
| CC(=O)N(Cc1ccccc1-c1ccc(CNCCc2ccccc2)cc1)C1CCN(Cc2ccccc2)CC1 | 475 nM |
| COc1cc(CCCON2C(=N)N=C(N)NC2(C)C)cc(OC)c1OC | 39.1 nM |
| Cc1nc(N)nc(N)c1OCc1cccc2c1ccc1ccccc12 | 98.8 nM |
| COc1ccc(-c2nccc(NC(=N)NCc3ccccc3)n2)cc1 | 671 nM |
| NC(=O)c1ccc(-c2ccc3ccnc(N)c3c2)cc1 | 419 nM |
| COc1ccc2c(O)c(C3CCC(c4ccc(Cl)cc4)CC3)c(C)nc2c1 (stereo unspecified) | 647 nM |
| O=C(NCCN1CCOCC1)c1ccc(-c2ccc(CNCCCc3ccccc3)cc2)nc1 | 782 nM |
| O=C(c1cc2cccc([N+](=O)[O-])c2[nH]1)N1CCC(CCN2CCC(c3c[nH]c4ccccc34)CC2)CC1 | 943 nM |
| c1ccc(-c2nc(Nc3nc4ccccc4[nH]3)[nH]c2-c2ccccc2)cc1 | 619 nM |
| CCC[C@@H]([C@@H](CC1CCCCC1)C(=O)NC(C(=O)Nc1nccs1)C(CC)c1ccccc1)N(O)C=O (stereo partly specified) | 689 nM |
| Nc1ccc(Nc2ccnc3ccc(C(F)(F)F)cc23)cc1O | 716 nM |
| CS(=O)(=O)NCCCNCc1ccc(-c2ccc(-c3nc4cc(C(F)(F)F)ccc4[nH]3)cc2)cc1 | 457 nM |
| CC[C@]1(C)C[C@@H](NC(=O)NC(=O)c2ccc(OC)cc2)[C@]2(C)[C@H](C)CC[C@]3(CCC(=O)[C@H]32)[C@@H](C)[C@@H]1OC(=O)NC(=O)c1ccc(OC)cc1 | 987 nM |
| CC(=O)N(Cc1ccc(-c2ccc(CNCCc3ccccc3)cc2)cc1)C1CCN(Cc2ccccc2)CC1 | 939 nM |
| CCN(CC)CCNc1ccnc2ccc3ccccc3c12 | 219 nM |
| CC1(C)N=C(N)N=C(N)N1c1ccc(Br)cc1 | 9.2 nM |
| CC(=O)c1ccccc1C(=O)N1CCOc2ccc(C(O)C(c3ccccc3)c3ccccc3)cc2C1 (stereo unspecified) | 905 nM |
| CS(=O)(=O)c1ccc(CNCc2ccc(-c3cccc(-c4nc5ccccc5[nH]4)c3)cc2)cc1 | 326 nM |
| Cc1ccn2c(C(=O)N3CCN(c4cccc5c4nc(-c4ccoc4)n5Cc4ccccn4)CC3)c(C)nc2c1 | 203 nM |
| Cc1nc2ccc([N+](=O)[O-])cc2c(=O)n1OCc1ccccc1 | 208 nM |
| Nc1ncc(Cc2cc(Cl)c(N)c3ncccc23)c(N)n1 | 1120 nM |
| CCN(CC)/C(=N/C(=N)NCc1ccc(Cl)cc1)NCCCCCCN/C(=N\C(=N)NCc1ccc(Cl)cc1)N(CC)CC | 231 nM |
| Cc1cc2nc(N/C(N)=N/C(=O)NC3CCCCC3)nc(C)c2cc1C | 754 nM |

| Compound | XC50 |
| --- | --- |
| COc1c(C2=CCN(CCCCNC(=O)c3ccc(-c4ccc(C#N)cc4)cc3)CC2)c(C)cc2c1C(C)(C)CCC2(C)C | 947 nM |
| Nc1cccc(CNCc2ccc(-c3cccc(-c4nc5ccccc5[nH]4)c3)cc2)c1 | 710 nM |
| O=C(C(=O)c1ccc(Nc2ccnc3cc(-c4ccccn4)ccc23)cc1)c1ccccc1 | 966 nM |
| CCCN(CCC)CCOc1ccc(C(O)(C#CC(O)(c2ccc(OCCN(CCC)CCC)cc2)c2cccc(Cl)c2)c2cccc(Cl)c2)cc1 (stereo unspecified) | 790 nM |
| Cc1cc(O)c(CNC2CCCCC2)cc1C | 1050 nM |
| Cc1ccc(O)cc1Nc1ccnc2cc(-c3ccncc3)ccc12 | 723 nM |
| COc1ccc(CCNCCCCCCNCCc2ccc(Cl)cc2)c(Cl)c1OC | 825 nM |
| CCCN1CCC=C(c2cccc(Nc3nccc(Nc4cc(OC)ccc4C)n3)c2)C1 | 1040 nM |
| COc1ccc(-c2ccccc2CNc2nc(NCCc3ccc(O)cc3)nc(N3CCNCC3)n2)cc1 | 1080 nM |
| FC(F)(F)c1cccc(N2CCC(CN3CCC(c4c[nH]c5ccccc45)CC3)CC2)n1 | 980 nM |
| COCCNCc1cccc(-c2ccccc2CN(C(=O)c2ccc3c(c2)OCO3)c2ccc(OC)cc2)c1 | 1110 nM |
| Cn1nc(C(F)(F)F)cc1-c1ccc(C(=O)Nc2ccc3c(c2)CNCC3(C)C)s1 | 1010 nM |
| COc1ccc(CCn2c(=N)c(C(=O)NCc3ccccc3)cc3c(=O)n4cccc(C)c4nc32)cc1 | 339 nM |
| CC(=O)Nc1ccc2[nH]cc(C3CCN(CCC4CCN(C(=O)/C=C/c5ccc(Cl)c(Cl)c5)CC4)CC3)c2c1 | 776 nM |
| CN(C)CCNCc1ccc(-c2ccc(-c3nc4cc(F)ccc4[nH]3)cc2)cc1 | 474 nM |
| O=C(NC1CCN(c2ccnc3cc(Cl)ccc23)C1)c1ccccc1F (stereo unspecified) | 971 nM |
| CC1CN(Cc2ccc(-c3ccc(-c4nc5cc(F)ccc5[nH]4)cc3)cc2)CC(C)O1 (stereo unspecified) | 564 nM |
| CC(C)(NCc1ccc(OC(F)(F)F)cc1)c1nc(-c2ccc(Cl)c(O)c2)c(-c2ccncc2)[nH]1 | 940 nM |
| Oc1c(C(Nc2ccccn2)c2ccc(Cl)cc2Cl)ccc2cccnc12 (stereo unspecified) | 892 nM |
| Cc1cccc(CN2CCC(CNC(=O)c3cc4c(-c5ccccc5F)nn(C)c4s3)CC2)c1 | 1090 nM |
| COc1c(C2CCN(CCCCNC(=O)c3ccc(-c4ccc(C(F)(F)F)cc4)c(C(=O)OC(C)C)c3)CC2)ccc2c1CCCC2 | 858 nM |
| CCC(Cc1ccccc1)c1cc(O)c(Cc2ccc(-c3ccccc3)cc2)c(=O)o1 (stereo unspecified) | 971 nM |
| CC(=O)Nc1cccc(C(=O)Nc2cccc(-c3ccc(-c4nc5cccc(C)c5[nH]4)cc3)c2)c1 | 908 nM |
| CCC[C@@H]([C@@H](CC1CCCCC1)C(=O)N[C@H](C(=O)Nc1nccs1)C(C)(C)SCCNC(=O)OCc1ccccn1)N(O)C=O | 162 nM |

| Compound | XC50 |
| --- | --- |
| CCn1cc(C=C2Oc3c(ccc(O)c3CN3CCCCC3C)C2=O)c2ccccc21 (stereo unspecified) | 1020 nM |
| CS(=O)(=O)CCNCc1nc(-c2ccc3c(Nc4ccc(F)c(O)c4)ccnc3c2)cs1 | 820 nM |
| CC(C)NCc1cccc(-c2ccc(NC(=O)c3ccc(F)cc3)cc2)c1 | 850 nM |
| COc1ccc(-c2ccc(NC(=O)c3ccc(C#N)cc3)c(F)c2)cc1CN(C)CCN(C)C | 974 nM |
| CCN(CC)CCNc1nccc(N(C)c2ccc(NC(=O)Nc3cc(C(F)(F)F)ccc3F)cc2)n1 | 549 nM |
| N#Cc1ccc(/C=C/C(=O)NCCCCCN2CCCN(C(=O)Nc3ccc(Cl)c(C(F)(F)F)c3)CC2)cc1 | 437 nM |
| Cc1cccc2nc(-c3cccc(-c4cccc(NC(=O)CNc5ccc(C(N)=O)cc5)c4)c3)[nH]c12 | 282 nM |
| COc1ccc(C(=O)CCc2ccc(O)cc2)cc1 | 483 nM |
| O=C(NCCc1ccccc1)N(Cc1ccccc1-c1ccc(CNC2CCCC2)cc1)C1CCN(Cc2ccccc2)CC1 | 1130 nM |
| Cc1cc2nc(-c3ccc(/C=C/C(=O)NC4CCCCC4)cc3)[nH]c2cc1C | 1010 nM |
| O=C(Nc1cccc(-c2cccc(-c3nc4cc(F)ccc4[nH]3)c2)c1)Nc1ccc(F)c(F)c1F | 89.1 nM |
| COc1ccc(COc2cc(NCCCN)nc3ccccc23)cc1 | 1280 nM |
| CC(=O)Nc1ncc(C(=O)Nc2cccc(-c3cccc(-c4nc5ccccc5[nH]4)c3)c2)s1 | 814 nM |
| O=C(Nc1ccc(Cl)cc1)Nc1cccc(-c2cccc(-c3nc4cc(F)ccc4[nH]3)c2)c1 | 220 nM |
| CN1CCN(CC2(Nc3nccc(NCc4ccc(Cl)cc4Cl)n3)CCCCC2)CC1 | 593 nM |
| O=C(Nc1ccc(Oc2ccccc2)cc1)N1CCC(CN2CCC(c3c[nH]c4ccccc34)CC2)CC1 | 606 nM |
| COc1ccc(CN2CCC(NCc3ccc(C(F)(F)F)cc3)CC2)cc1 | 916 nM |
| COc1ccc2nccc([C@@H](O)CN3CCC(NCc4nc5ccccc5s4)CC3)c2c1 | 927 nM |
| COc1cc(C2C(Oc3ccccc3)C(=O)N2Cc2ccc(F)cc2)cc(OC)c1OC (stereo unspecified) | 956 nM |
| COc1ccc2nc(-c3ccc(C(=O)NCCCN4CCN(c5cc(Cl)ccc5OC)CC4)cc3OC)[nH]c2c1 | 872 nM |
| COc1ccc(-c2cccc(NC(=O)c3cccc(C#N)c3)c2)cc1CN1CCCN(C)CC1 | 190 nM |
| N#Cc1cccc(CN2CCCN(c3ccc(NC(=O)c4cccs4)cc3)CC2)c1 | 809 nM |
| CC1(C)N=C(N)N=C(N)N1c1ccc(Cl)cc1 | 31.1 nM |
| CCCCCc1cc(O)c2c(c1)OC(C)(C)CC2C1=CCN(Cc2cccnc2)CC1 (stereo unspecified) | 991 nM |
